Key:
Colon 26 carcinoma [1] = assay: In vivo antitumor activity against Colon 26 carcinoma, single i.p. administration (Experiment 1); design: species or system CDF1/Crj strain male mouse; conditions: tumor weighed 10 days after administration
Excerpt: A small piece of Colon 26 tumor (1-2 mm^3) was subcutaneously implanted in a lateral region of abdomen of a CDF1 /Crj strain male mouse (6 weeks old). Four days after the implantation, mice with the almost same size of tumor were divided into groups of 5-6 members each, and each mouse was intraperitoneally administered the test compound. Ten days after the administration, each of the mice was sacrificed, and the tumor was weighed to calculate the growth inhibitory ratio (GIR) by the following equation: [formula] wherein C and T represent the mean weights of tumor of the control group and the treated group, respectively.
Cisplatin (CDDP) which is a known compound was used as a comparison.

[2] = Test on side-effects: body weight and BUN (Experiment 4); format: in vivo, BDF1/Crj strain male mice
Excerpt: BDF1 /Crj strain male mice (6 weeks old) were intraperitoneally administered the test compound, and 1, 3 and 5 days after the administration, 3 mice were saceificed to determine the body weight and the level of urea nitrogen in blood (abbreviated as BUN).

Colon 26 carcinoma [3] = assay: In vivo antitumor activity against Colon 26 carcinoma, i.p. on days 4, 6 and 8 (Experiment 2); design: species or system CDF1/Crj strain male mouse; conditions: 40 mg/kg i.p. on day 4, 6 and 8 after implantation; tumor weighed day 14
Method: A small piece of Colon 26 tumor (1-2 mm^3) was subcutaneously implanted in a lateral region of abdomen of a CDF1 /Crj strain male mouse (7 weeks old). Four days after the implantation, mice with the almost same size of tumor were divided into groups of 5-6 members each, and each mouse was intraperitoneally administered the test compound on day 4, 6, and 8 after implantation in a dose of 40 mg/kg one day. Fourteen days after the implantation, each mouse was sacrificed, and the tumor thereof was weighed to calculate the GIR (%) by the following equation. [formula] where C and T represent the mean weights of tumor of the control group and the group administered the test compound, respectively.

[4] = cited from earlier work
plasma proteins = assay: In vitro binding to plasma proteins (Experiment 3); format: in vitro ADME, SD strain rat; conditions: 37° C., 5 μg/ml of Pt, rat plasma
Method: A solution of the test compound was added to plasma obtained from SD strain rat at a ratio of 1:19 by volume which corresponded to 5 μg/ml of Pt. The mixture was incubated at 37° C. under dark. At a predetermined time, the mixture was sampled, and filtered with a molecular sieve membrane (manufactured by Amico Centriflow PMS) under centrifugation. The Pt content in the filtrate unbound Pt was assayed by an atomic absorption spectrophotometry.

[5] = 60 mg/kg i.p., 1 day after administration
[6] = 60 mg/kg i.p., 3 days after administration
[7] = 60 mg/kg i.p., 5 days after administration
[8] = 12 mg/kg i.p., 1 day after administration
[9] = 12 mg/kg i.p., 3 days after administration
[10] = 12 mg/kg i.p., 5 days after administration

Row | Compound | GIR (growth inhibitory ratio) (Colon 26 carcinoma [1]; 40 mg/kg i.p. single) | GIR (growth inhibitory ratio) (Colon 26 carcinoma [1]; 60 mg/kg i.p. single) | GIR (growth inhibitory ratio) (Colon 26 carcinoma [1]; 80 mg/kg i.p. single) | GIR (growth inhibitory ratio) (Colon 26 carcinoma [1]; 120 mg/kg i.p. single) | GIR (growth inhibitory ratio) (Colon 26 carcinoma [1]; 160 mg/kg i.p. single) | BUN (urea nitrogen in blood, mean ± SD) [2, 5] | Body weight (mean ± SD) [2, 5] | BUN (urea nitrogen in blood, mean ± SD) [2, 6] | Body weight (mean ± SD) [2, 6] | BUN (urea nitrogen in blood, mean ± SD) [2, 7] | Body weight (mean ± SD) [2, 7] | CIR (Colon 26 carcinoma [3]) | further results
1 | cis-dichloro-trans-dihydroxy(2-aminomethylazetidine)platinum(IV) [Compound 19] | 60% | 77% | 85% | 92% | 95% | – | – | – | – | – | – | – | –
2 | (R)-1,1-cyclobutanedicarboxylate(2-aminomethylpyrrolidine)platinum(II) [Compound 3] | 70% | 85% | 90% | 95% | died | 18.3 ± 3.1 mg/dL | 23.4 ± 1.5 g | 13.8 ± 1.8 mg/dL | 20.1 ± 1.2 g | 13.8 ± 7.6 mg/dL | 17.5 ± 0.7 g | 95% | –
3 | [NH2][Pt]([NH2])([Cl])[Cl] [CDDP, cisplatin, reference compound] | – | – | – | – | – | – | – | – | – | – | – | – | BUN (urea nitrogen in blood, mean ± SD) [2, 8]: 23.3 ± 4.7 mg/dL; Body weight (mean ± SD) [2, 8]: 24.6 ± 1.1 g; BUN (urea nitrogen in blood, mean ± SD) [2, 9]: 38.5 ± 28.9 mg/dL; Body weight (mean ± SD) [2, 9]: 22.55 ± 1.1 g; BUN (urea nitrogen in blood, mean ± SD) [2, 10]: 65.2 ± 31.5 mg/dL; Body weight (mean ± SD) [2, 10]: 19.0 ± 1.5 g; antitumor activity (in words) ([4]; Rosenberg et al, Nature 222, 385 (1969)): has antitumor activity; nephrotoxicity (in words) ([4]; known platinum complexes including CDDP): very serious nephrotoxicity; Percent binding to plasma proteins (plasma proteins; 1 hr incubation): 16%; Percent binding to plasma proteins (plasma proteins; 4 hr incubation): 62%; Percent binding to plasma proteins (plasma proteins; 8 hr incubation): 86%; Percent binding to plasma proteins (plasma proteins; 24 hr incubation): 93%; GIR (growth inhibitory ratio) (Colon 26 carcinoma [1]; 4 mg/kg i.p. single): 26%; GIR (growth inhibitory ratio) (Colon 26 carcinoma [1]; 6 mg/kg i.p. single): 51%; GIR (growth inhibitory ratio) (Colon 26 carcinoma [1]; 8 mg/kg i.p. single): 62%; GIR (growth inhibitory ratio) (Colon 26 carcinoma [1]; 12 mg/kg i.p. single): 79%; GIR (growth inhibitory ratio) (Colon 26 carcinoma [1]; 16 mg/kg i.p. single): died
4 | NC[C@H]1CCCN1.O=C([O-])C1(C(=O)[O-])CCC1.[Pt+2] [Compound 1, 1,1-cyclobutanedicarboxylate(2-aminomethylpyrrolidine)platinum(II)] | 79% | 87% | 98% | 97% | died | – | – | – | – | – | – | 98% | –
5 | (S)-1,1-cyclobutanedicarboxylate(2-aminomethylpyrrolidine)platinum(II) [Compound 2] | 73% | 88% | 94% | 98% | died | 20.0 ± 2.6 mg/dL | 23.1 ± 1.4 g | 17.7 ± 3.1 mg/dL | 19.9 ± 1.6 g | 15.4 ± 5.5 mg/dL | 17.9 ± 1.1 g | 99% | –

Reference: patent publication US4822892A, “N-heterocyclic platinum complexes” (Chugai Seiyaku Kabushiki Kaisha, priority 1984, dated 1989)
